Experimental data reported in the supplement of paper PMC8633005.

Experiments:
Test in all cases: drug sensitivity score (DSS) (DSS (unitless, 0-50 scale)); higher = more sensitive (stronger viability inhibition); extreme values may be limits of the assay
Settings in all cases: 72 h; culture: 2D
FM-MEL-2 = test system: FM-MEL-2
Procedure, shortened: (§1)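 Patient-derived melanoma cultures (1000–1500 cells per well) and melanoma cell lines were grown in 2D in 384-well plates holding a 527-compound oncology library. Each compound was dissolved in DMSO or water and tested at five concentrations spanning a 10,000-fold range. After 72 h at 37 °C, viability was read by CellTiter-Glo luminescence. A drug sensitivity score, a modified area-under-curve measure, was derived from dose-response curves fitted in the in-house Breeze software.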

Bowes = test system: Bowes
Procedure, shortened: as §1

SK-MEL-2 = test system: SK-MEL-2
Procedure, shortened: as §1

WM852 = test system: WM852
Procedure, shortened: as §1

FM-MEL-6 = test system: FM-MEL-6
Procedure, shortened: as §1

SK-MEL-28 = test system: SK-MEL-28
Procedure, shortened: as §1

FM-MEL-3 = test system: FM-MEL-3
Procedure, shortened: as §1

WM165 = test system: WM165
Procedure, shortened: as §1

Row | Structure (SMILES) | drug sensitivity score (FM-MEL-2) | drug sensitivity score (Bowes) | drug sensitivity score (SK-MEL-2) | drug sensitivity score (WM852) | drug sensitivity score (FM-MEL-6) | drug sensitivity score (SK-MEL-28) | drug sensitivity score (FM-MEL-3) | drug sensitivity score (WM165)
1 | O=C(c1ccc(OCCN2CCCCC2)cc1)c1c(-c2ccc(O)cc2)sc2cc(O)ccc12 [Raloxifene] | 2.1 | 0 | 0 | 1.9 | 1.8 | 1.3 | 4.7 | 2
2 | Cc1nc(=O)c2cc(CN(C)c3ccc(C(=O)N[C@@H](CCC(=O)O)C(=O)O)s3)ccc2[nH]1 [Raltitrexed] | 0 | 23.9 | 0 | 0 | 0 | 3.9 | 0 | 8.4
3 | Cn1nccc1Nc1nccc(-c2ccn([C@H](CO)c3ccc(Cl)c(F)c3)c(=O)c2)n1 [Ravoxertinib] | 11.9 | 1.7 | 5.2 | 1.9 | 5.6 | 13.1 | 12.4 | 12
4 | CNC(=O)c1cc(Oc2ccc(NC(=O)Nc3ccc(Cl)c(C(F)(F)F)c3)c(F)c2)ccn1 [Regorafenib] | 8.5 | 6.7 | 2.8 | 1.8 | 3.7 | 4.6 | 12.9 | 5.3
5 | CCOC(=O)C1=CCCC[C@H]1S(=O)(=O)Nc1ccc(F)cc1Cl [Resatorvid] | 0 | 0 | 0 | 0 | 0 | 0 | 0 | 0
6 | CCOCc1nc2c(N)nc3ccccc3c2n1CC(C)(C)O [Resiquimod] | 0 | 0.1 | 0 | 0.4 | 0.2 | 0 | 0 | 0
7 | CN(C)Cc1ccc(S(=O)(=O)n2ccc(/C=C/C(=O)NO)c2)cc1 [Resminostat] | 6.9 | 2.7 | 7.9 | 2.7 | 7.3 | 4.8 | 6.5 | 9.7
8 | CN(C)C(=O)c1cc2cnc(Nc3ccc(N4CCNCC4)cn3)nc2n1C1CCCC1 [Ribociclib] | 4.3 | 0 | 0 | 0.7 | 1.6 | 5.4 | 2.3 | 2.8
9 | CO[C@H]1C[C@@H]2CC[C@@H](C)[C@@](O)(O2)C(=O)C(=O)N2CCCC[C@H]2C(=O)O[C@H]([C@H](C)C[C@@H]2CC[C@@H](OP(C)(C)=O)[C@H](OC)C2)CC(=O)[C@H](C)/C=C(\C)[C@@H](O)[C@@H](OC)C(=O)[C@H](C)C[C@H](C)/C=C/C=C/C=C/1C [Ridaforolimus] | 0.9 | 0 | 0 | 0 | 2.7 | 3.8 | 0 | 7.6
10 | C[C@H]1CNCCCN1S(=O)(=O)c1cccc2cncc(F)c12 [Ripasudil] | 0 | 0 | 0 | 0 | 0 | 0 | 0 | 0.1
11 | C=CC(=O)Nc1cccc(Nc2nc(Nc3ccc(N4CCN(C(C)=O)CC4)cc3OC)ncc2C(F)(F)F)c1 [Rociletinib] | 6.6 | 7.7 | 2.9 | 3 | 3.4 | 1.1 | 7.9 | 7.2
12 | O=C(CCCCCCNC(=O)c1cnc(N(c2ccccc2)c2ccccc2)nc1)NO [Rocilinostat] | 2.8 | 2 | 3.4 | 2.3 | 6.6 | 3.7 | 6.4 | 5.7
13 | C/C=C1\NC(=O)[C@H]2CSSCC/C=C/[C@H](CC(=O)N[C@H](C(C)C)C(=O)N2)OC(=O)[C@H](C(C)C)NC1=O [Romidepsin] | 28.1 | 18.6 | 30.4 | 17.9 | 26.5 | 29 | 29.7 | 30
14 | Cc1nc(C(=O)NCC(=O)O)c(O)c2ccc(Oc3ccccc3)cc12 [Roxadustat] | 0 | 0 | 0 | 2.1 | 0 | 0 | 0 | 0
15 | CN(C)C[C@@H]1CCn2cc(c3ccccc32)C2=C(C(=O)NC2=O)c2cn(c3ccccc23)CCO1 [Ruboxistaurin] | 7.2 | 4.5 | 4.7 | 6.7 | 7.6 | 9 | 6.5 | 8.6
16 | CNCc1ccc(-c2[nH]c3cc(F)cc4c3c2CCNC4=O)cc1 [Rucaparib] | 0.8 | 0.6 | 0 | 0 | 0.7 | 0 | 0.5 | 3.8
17 | N#CC[C@H](C1CCCC1)n1cc(-c2ncnc3[nH]ccc23)cn1 [Ruxolitinib] | 0 | 0.1 | 0 | 0.1 | 0 | 0 | 1.4 | 0
18 | CC(C)N(CCCNC(=O)Nc1ccc(C(C)(C)C)cc1)C[C@H]1O[C@@H](n2cc(Br)c3c(N)ncnc32)[C@H](O)[C@@H]1O [SGC0946] | 1.4 | 0 | 0 | 2 | 0.8 | 0 | 6.1 | 0
19 | COc1ccc(CCc2nc3cc(-c4c(C)noc4C)ccc3n2C[C@H](C)N2CCOCC2)cc1Cl [SGC-CBP30] | 4.9 | 3.6 | 0.1 | 0 | 3 | 0.9 | 7.4 | 5.2
20 | CN1CCC(CNc2ccc3ncc(-c4cccc(OC(F)(F)F)c4)n3n2)CC1 [SGI-1776] | 5.9 | 5.5 | 4.8 | 6.1 | 5.3 | 6.1 | 5.1 | 6.1

Row | Structure (SMILES) | drug sensitivity score (FM-MEL-2) | drug sensitivity score (Bowes) | drug sensitivity score (SK-MEL-2) | drug sensitivity score (WM852) | drug sensitivity score (FM-MEL-6) | drug sensitivity score (SK-MEL-28) | drug sensitivity score (FM-MEL-3) | drug sensitivity score (WM165)
21 | CN(CC(=O)N(Cc1ccc(C2CCCCC2)cc1)c1ccc(C(=O)O)cc1)S(=O)(=O)c1c(F)c(F)c(F)c(F)c1F [SH-4-54] | 5.2 | 7.1 | 5.1 | 6.4 | 5.8 | 5.4 | 8.2 | 16.1
22 | CCc1c2c(nc3ccc(O)cc13)-c1cc3c(c(=O)n1C2)COC(=O)[C@]3(O)CC [SN-38] | 11.8 | 19.7 | 17.3 | 8 | 19.7 | 17 | 24.6 | 42.7
23 | CC(C)(C)c1cnc(CSc2cnc(NC(=O)C3CCNCC3)s2)o1 [SNS-032] | 12.7 | 31.8 | 19.2 | 18.2 | 26.1 | 18.9 | 19.2 | 25
24 | Cc1cc2c(C(=O)NC[C@H](C)c3ccccc3)c(O)c(O)cc2c(O)c1-c1c(C)cc2c(C(=O)NC[C@H](C)c3ccccc3)c(O)c(O)cc2c1O [Sabutoclax] | 13 | 27.6 | 9.2 | 18 | 5.6 | 11.1 | 0.4 | 24.6
25 | CC[C@@H](C(=O)[C@@H](C)[C@@H](O)[C@H](C)[C@@H]1O[C@@H]([C@@H](CC)C(=O)O)CC[C@@H]1C)[C@H]1O[C@]2(C=C[C@@H](O)[C@]3(CC[C@@](C)([C@H]4CC[C@](O)(CC)[C@H](C)O4)O3)O2)[C@H](C)C[C@@H]1C [Salinomycin] | 6.4 | 19.1 | 2.1 | 9.9 | 13.2 | 9.5 | 6.9 | 18.3
26 | CC(C)n1nc(-c2ccc3oc(N)nc3c2)c2c(N)ncnc21 [Sapanisertib] | 10.1 | 13.2 | 7.9 | 8.6 | 11.1 | 10.2 | 9 | 11.7
27 | CNC(=O)CN1CCC(Oc2cc3c(Nc4cccc(Cl)c4F)ncnc3cc2OC)CC1 [Sapitinib] | 0 | 0 | 0 | 0 | 0 | 0 | 0 | 0
28 | CN1CCN(CCOc2cc(OC3CCOCC3)c3c(Nc4c(Cl)ccc5c4OCO5)ncnc3c2)CC1 [Saracatinib] | 2.3 | 0.3 | 0 | 1.8 | 0.9 | 4 | 0.8 | 2.8
29 | CC1=C2C[C@H]3[C@@H](CC[C@@H]4C[C@H](NS(C)(=O)=O)CC[C@@]43C)[C@@H]2CC[C@@]2(C1)O[C@@H]1C[C@H](C)CN[C@H]1[C@H]2C [Saridegib] | 0 | 0 | 0 | 0 | 0 | 0 | 0 | 0.5
30 | CC[C@H](CO)Nc1nc(NCc2ccccc2)c2ncn(C(C)C)c2n1 [Seliciclib] | 0.8 | 2.6 | 0 | 0 | 0 | 0 | 0 | 1.7
31 | O=C(/C=C\n1cnc(-c2cc(C(F)(F)F)cc(C(F)(F)F)c2)n1)NNc1cnccn1 [Selinexor] | 9.6 | 12.4 | 13.3 | 8.2 | 8.4 | 9.2 | 11.5 | 18.7
32 | Cc1cc(F)c(C(=O)Nc2cccc(-c3nncn3C(C)C)n2)cc1-n1cnc(C2CC2)c1 [Selonsertib] | 0 | 0 | 0 | 0 | 0 | 0 | 0 | 0
33 | CN1CCN(C(=O)c2ccc3cc(CCNc4ncnc5ccc(C#N)cc45)ccc3c2)CC1 [Senexin B] | 1 | 0 | 0 | 0.9 | 0.1 | 0 | 1.2 | 0
34 | COCC[n+]1c2c(n(Cc3cnccn3)c1C)C(=O)c1ccccc1C2=O [Sepantronium bromide] | 21.9 | 34.6 | 36.2 | 35.2 | 22.3 | 34.4 | 41 | 43.2
35 | Nc1nc2cc(-c3ccc4ncc(C(=O)N5CCOCC5)n4c3)ccc2o1 [Serabelisib] | 0.5 | 0 | 0 | 0 | 0 | 0 | 0.3 | 0.1
36 | O=C(O)c1ccc2c(c1)nc(Nc1cccc(Cl)c1)c1ccncc12 [Silmitasertib] | 3.2 | 3.3 | 2.7 | 2.4 | 3.4 | 2.3 | 9.2 | 7.3
37 | CCC(C)(C)C(=O)O[C@H]1C[C@@H](C)C=C2C=C[C@H](C)[C@H](CC[C@@H]3C[C@@H](O)CC(=O)O3)[C@H]21 [Simvastatin] | 0 | 2.8 | 0.1 | 1 | 0.3 | 0 | 1 | 4.5
38 | CO[C@H]1C[C@@H]2CC[C@@H](C)[C@@](O)(O2)C(=O)C(=O)N2CCCC[C@H]2C(=O)O[C@H]([C@H](C)C[C@@H]2CC[C@@H](O)[C@H](OC)C2)CC(=O)[C@H](C)/C=C(\C)[C@@H](O)[C@@H](OC)C(=O)[C@H](C)C[C@H](C)/C=C/C=C/C=C/1C [Sirolimus] | 0.2 | 0 | 0 | 0 | 1.2 | 0.9 | 0.2 | 4.5
39 | COCCNCc1ccc(-c2cc3nccc(Oc4ccc(NC(=O)C5(C(=O)Nc6ccc(F)cc6)CC5)cc4F)c3s2)nc1 [Sitravatinib] | 2 | 0.6 | 0 | 1.9 | 2.4 | 2.3 | 2.6 | 2.1
